In patent US20210278408A1, “METHODS OF TREATMENT OF CANCER WITH SUBSTITUTED PYRROLE AND PYRAZOLE COMPOUNDS AND DIAGNOSIS OF CANCERS SUSCEPTIBLE TO TREATMENT WITH SUBSTITUTED PYRROLE AND PYRAZOLE COMPOUNDS” (Bantam Pharmaceutical, LLC, priority 2018, published 2021):
Where two headings read alike, the source gives them in different places.

Columns and labels:
SU-DHL-10 = test: Anti-proliferative activity, CellTiter-Glo, 72 hours: SU-DHL-10; assay type: cell-based, human; conditions: Homo sapiens, SU-DHL10, SU-DHL-10 (B-cell lymphoma), Cell-Titre-Glo
Description: (§1) Anti-proliferative activity of BTM compounds. The anti-proliferative activities of Compound A197 and Compound B19 were compared to 4EGI-1 (a known cancer cell growth inhibitor) in a panel of 99 tumor lines. Methods: A panel of 96 tumor and 3 normal cell lines were tested for sensitivity to the test compound. The cell lines were cultured in standard media and pipetted into 96-well plates at the required plating densities. The cells were acclimated for 24 hours prior to compound testing. Compound was prepared as a stock of 20 mM in DMSO. To prepare dose response curves compound was serially diluted in DMSO and dispensed into the plate wells using a Tecan D300e digital dispenser. The final DMSO concentration was 0.15%. After 72 hours of incubation cell number was determined using the CellTiter-Glo® protocol according to the manufacturers instructions (Promega). In this assay, ATP is measured as a surrogate of cell number. The activity of the compound is determined by comparing untreated cells with treated cells and calculating the % of signal retained. Compound activity is measured as an EC50 of maximum level of efficacy and the two are used to compute an activity area. The table below provides a comparison of activity in a data sample.

SU-DHL-6 = test: Anti-proliferative activity, CellTiter-Glo, 72 hours: SU-DHL-6; assay type: cell-based, human; conditions: Homo sapiens, SU-DHL-6 (B-cell lymphoma), Cell-Titre-Glo
Description: as §1

SU-DHL-4 = test: Anti-proliferative activity, CellTiter-Glo, 72 hours: SU-DHL-4; assay type: cell-based, human; conditions: Homo sapiens, SU-DHL-4 (B-cell lymphoma), Cell-Titre-Glo
Description: as §1

[1] = tested on: panel of 96 tumor and 3 normal cell lines; test: Anti-proliferative activity in a panel of 99 cell lines, CellTiter-Glo, 72 hours; assay type: cell-based, human; conditions: for IC50: Homo sapiens, in responsive cell lines, read-out: activity range; for % of hematopoietic tumor lines being responsive / % of solid tumor lines being responsive: IC50<2 μM; for active in % of the tested cell lines (IC50<2 μM): all tested cell lines; for % of NSCLC tumor lines responsive / % of colorectal tumor lines responsive / % of sarcoma tumor lines responsive: among solid tumor lines; for activity in primary diploid cell lines: e.g. human umbilical vein endothelial cells and normal human lung fibroblasts (NHLF)
Description: as §1

HT-1080 = test: Anti-proliferative activity, CellTiter-Glo, 72 hours: HT-1080; assay type: cell-based, human; conditions: Homo sapiens, HT-1080 (fibrosarcoma), Cell-Titre-Glo
Description: as §1

NCI-H460 = test: Anti-proliferative activity, CellTiter-Glo, 72 hours: NCI-H460; assay type: cell-based, human; conditions: Homo sapiens, NCI-H460 (non-small cell lung cancer), Cell-Titre-Glo
Description: as §1

NCI-H2122 = test: Anti-proliferative activity, CellTiter-Glo, 72 hours: NCI-H2122; assay type: cell-based, human; conditions: Homo sapiens, NCI-H2122 (non-small cell lung cancer), Cell-Titre-Glo
Description: as §1

HUVEC = test: Anti-proliferative activity, CellTiter-Glo, 72 hours: HUVEC; assay type: cell-based, human; conditions: Homo sapiens, HUVEC (primary endolithial cells), Cell-Titre-Glo
Description: as §1

SK-MEL-28 = test: Anti-proliferative activity, CellTiter-Glo, 72 hours: SK-MEL-28; assay type: cell-based, human; conditions: Homo sapiens, SK-MEL-28 (melanoma), Cell-Titre-Glo
Description: as §1

NHLF = test: Anti-proliferative activity, CellTiter-Glo, 72 hours: NHLF; assay type: cell-based; conditions: NHLF (human lung fibroblast), Cell-Titre-Glo
Description: as §1

MDA-MB-231 = test: Anti-proliferative activity, CellTiter-Glo, 72 hours: MDA-MB-231; assay type: cell-based, human; conditions: Homo sapiens, MDA-MB-231 (breast cancer), Cell-Titre-Glo
Description: as §1

A549 = test: Anti-proliferative activity, CellTiter-Glo, 72 hours: A549; assay type: cell-based, human; conditions: Homo sapiens, A549 (non-small cell lung cancer), Cell-Titre-Glo
Description: as §1

Jurkat = test: Anti-proliferative activity, CellTiter-Glo, 72 hours: Jurkat; assay type: cell-based, human; conditions: Homo sapiens, Jurkat (T cell leukemia), Cell-Titre-Glo
Description: as §1

MIA PaCa-2 = test: Anti-proliferative activity, CellTiter-Glo, 72 hours: MIA PaCa-2; assay type: cell-based, human; conditions: Homo sapiens, MIA PaCa-2 (pancreactic cancer (carcinoma)), Cell-Titre-Glo
Description: as §1

MDA-MB-157 = test: Anti-proliferative activity, CellTiter-Glo, 72 hours: MDA-MB-157; assay type: cell-based, human; conditions: Homo sapiens, MDA-MB-157, 72 h
Description: as §1

HUH-6 CLONE5 = test: Cell viability, CellTiter-Glo, 96 h: HUH-6 CLONE5; assay type: cell-based; conditions: for IC50: read-out: Absolute IC50
Description: (§2) Viability was determined by using the 50% inhibitory concentration (IC50) as determined with the CellTiter-Glo® Viability Assay (Promega). All cells were cultured under standard conditions in media supplemented with 10-15% Fetal Bovine Serum, at a temperature of 37° C., 5% CO2 and 95% humidity.
(§3) Cells were harvested during the logarithmic growth period, counted, and the cell concentration adjusted to 4.44×10^4 cells/mL using culture medium. A final cell density of 4×10^3 cells/well was added in a 90 μL cell suspension to plates A and B as shown.
(§4) Test plate B was incubated for 96 h in the humidified incubator at 37° C. with 5% CO2.
(§5) Following the incubation, the plate was equilibrated at room temperature for thirty minutes. CellTiter-Glo® (50 μL) was added to each well of the plate and contents mixed for five minutes on an orbital shaker to induce cell lysis. The luminescent signal was allowed to stabilize at room temperature for 20 minutes and the luminescence recorded.
(§6) IC50 (EC50) was calculated using a dose-response curve, fitted using a nonlinear regression model with a sigmoidal dose response. Survival rate was calculated using the formula:
(§7) The Surviving rate (%)=(LumTest article−LumMedium control)/(LumNon-treated−LumMedium control)×100%.
(§8) Absolute IC50 (EC50) was calculated according to the dose-response curve generated by the statistical software (GraphPad Prism 5.0).

LS 174T = test: Cell viability, CellTiter-Glo, 96 h: LS 174T; assay type: cell-based
Description: as §2, §3, §4, §5, §6, §7, §8

D283 Med = test: Cell viability, CellTiter-Glo, 96 h: D283 Med; assay type: cell-based; conditions: for IC50: read-out: Absolute IC50
Description: as §2, §3, §4, §5, §6, §7, §8

JHH-6 = test: Cell viability, CellTiter-Glo, 96 h: JHH-6; assay type: cell-based; conditions: for IC50: read-out: Absolute IC50
Description: as §2, §3, §4, §5, §6, §7, §8

KU812 = test: Cell viability, CellTiter-Glo, 96 h: KU812; assay type: cell-based; conditions: for IC50: read-out: Absolute IC50
Description: as §2, §3, §4, §5, §6, §7, §8

8305C = test: Cell viability, CellTiter-Glo, 96 h: 8305C; assay type: cell-based; conditions: for IC50: read-out: Absolute IC50
Description: as §2, §3, §4, §5, §6, §7, §8

143B = test: Cell viability, CellTiter-Glo, 96 h: 143B; assay type: cell-based; conditions: for IC50: read-out: Absolute IC50
Description: as §2, §3, §4, §5, §6, §7, §8

[2] = Cell No. 407, read-out: Absolute IC50

| Structure (SMILES) | IC50 (SU-DHL-10) | IC50 (SU-DHL-6) | IC50 (SU-DHL-4) | IC50 [1] | % of hematopoietic tumor lines being responsive [1] | % of solid tumor lines being responsive [1] | active in % of the tested cell lines (IC50<2 μM) [1] | % of NSCLC tumor lines responsive [1] | % of colorectal tumor lines responsive [1] | % of sarcoma tumor lines responsive [1] | activity in primary diploid cell lines [1] | IC50 (HT-1080) | IC50 (NCI-H460) | IC50 (NCI-H2122) | IC50 (HUVEC) | IC50 (SK-MEL-28) | IC50 (NHLF) | IC50 (MDA-MB-231) | IC50 (A549) | IC50 (Jurkat) | other results |
| --- | --- | --- | --- | --- | --- | --- | --- | --- | --- | --- | --- | --- | --- | --- | --- | --- | --- | --- | --- | --- | --- |
| COC(=O)c1c(-c2cccc(F)c2)c(C)nn1-c1nc(C2=CCC(C(F)(F)F)CC2)c(SC(C)C)s1 (single isomer, unassigned) [Compound B19, methyl 4-(3-fluorophenyl)-1-(5-(isopropylthio)-4-(4-(trifluoromethyl)cyclohex-1-en-1-yl)thiazol-2-yl)-3-methyl-1H-pyrazole-5-carboxylate] | 0.119 µM | 0.538 µM | 0.36 µM | 0.1 to 2 µM | 90% | 28% | 40% | 80% | 37% | 40% | tested negative | 0.528 µM | 0.167 µM | 0.184 µM | > 30 µM | > 30 µM | > 30 µM | > 30 µM | 0.189 µM | 0.166 µM | IC50 (MIA PaCa-2): 0.447 µM; IC50 (MDA-MB-157): > 30 µM |
| N.N.[Cl][Pt][Cl] [Cisplatin, reference compound] |  |  |  |  |  |  |  |  |  |  |  |  |  |  |  |  |  |  |  |  | % inhibition at top conc. (HUH-6 CLONE5): 99.43%; IC50 (HUH-6 CLONE5): 6.33 µM; % inhibition at top conc. (LS 174T; Cell No. 406): 96.60%; IC50 (LS 174T; Cell No. 406, read-out: Absolute IC50): 5.89 µM; % inhibition at top conc. (LS 174T; Cell No. 407): 96.74%; IC50 (LS 174T; [2]): 8.54 µM; % inhibition at top conc. (D283 Med): 99.39%; IC50 (D283 Med): 0.7 µM; % inhibition at top conc. (JHH-6): 95.32%; IC50 (JHH-6): 3.12 µM; % inhibition at top conc. (KU812): 99.20%; IC50 (KU812): 1.95 µM; % inhibition at top conc. (8305C): 99.17%; IC50 (8305C): 6.14 µM; % inhibition at top conc. (143B): 99.94%; IC50 (143B): 3.2 µM |
| Cc1nn(-c2nc(-c3ccc(C(F)(F)F)cc3)c(SC(C)C)s2)c(C(=O)O)c1-c1cccc(F)c1 [Compound A197, 4-(3-fluorophenyl)-1-(5-(isopropylthio)-4-(4-(trifluoromethyl)phenyl)thiazol-2-yl)-3-methyl-1H-pyrazole-5-carboxylic acid] | 0.136 µM | 0.521 µM | 0.288 µM | 0.1 to 2 µM | 90% | 28% | 40% | 80% | 37% | 40% | tested negative | 0.725 µM | 0.156 µM | 0.2 µM | > 30 µM | > 30 µM | > 30 µM | > 30 µM | 0.312 µM | 0.179 µM | % inhibition at top conc. (HUH-6 CLONE5): 11.18%; IC50 (HUH-6 CLONE5): > 30 µM; % inhibition at top conc. (LS 174T; Cell No. 406): 15.79%; % inhibition at top conc. (LS 174T; Cell No. 407): 27.00%; IC50 (LS 174T; [2]): > 30 µM; IC50 (LS 174T; Homo sapiens, LS174T, Cell No. 406, read-out: Absolute IC50): > 30 µM; % inhibition at top conc. (D283 Med): 66.67%; IC50 (D283 Med; Homo sapiens): > 30 µM; % inhibition at top conc. (JHH-6): 45.19%; IC50 (JHH-6): > 30 µM; % inhibition at top conc. (KU812): 27.53%; IC50 (KU812; Homo sapiens): > 30 µM; % inhibition at top conc. (8305C): 33.79%; IC50 (8305C; Homo sapiens): > 30 µM; % inhibition at top conc. (143B): 27.55%; IC50 (143B; Homo sapiens): > 30 µM; IC50 (MIA PaCa-2): 0.623 µM; IC50 (MDA-MB-157): > 30 µM |
